Measurements as given in patent US9856245B2, “GPR40 agonists for the treatment of type II diabetes” (Janssen Pharmaceutica NV, priority 2015, dated 2018).
pEC50: −log10 of the molar value. Several values for one entry are separate records, joined by “and”; a condition that tells them apart may be missing. Equal entries are not always repeated.

The molecules below were run against T1, human GPR40 (Homo sapiens, UniProt O14842) (assay: GPR40 calcium flux assay (hGPR40 Ca2+ Assay)). Conditions: transfected HEK293 cells stably expressing human GPR40; Fluo 8 calcium dye; multiple values = repeated testing; read-out: hGPR40 Ca^2+ Assay EC50.
T1 construct: expressed in transfected cells
T1 sequence (O14842 whole entry): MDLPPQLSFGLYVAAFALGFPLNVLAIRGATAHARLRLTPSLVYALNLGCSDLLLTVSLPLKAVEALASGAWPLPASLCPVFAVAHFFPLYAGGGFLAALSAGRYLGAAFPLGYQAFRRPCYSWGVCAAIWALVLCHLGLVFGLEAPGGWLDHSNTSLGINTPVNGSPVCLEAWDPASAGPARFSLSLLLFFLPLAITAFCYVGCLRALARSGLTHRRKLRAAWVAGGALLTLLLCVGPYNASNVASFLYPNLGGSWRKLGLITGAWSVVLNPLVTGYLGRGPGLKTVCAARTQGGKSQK
Format: cell-based
Method: Compounds were tested in a calcium flux assay using transfected HEK293 cells stably expressing either human GPR40 or rat GPR40. Human GPR40 expressing cells were cultured in DMEM-High Glucose media supplemented with 10% fetal bovine serum, 1× L-Glutamine, 1× Penicillin/Streptomycin and 500 μg/mL G418. Rat GPR40 expressing cells were cultured in DMEM-High Glucose media supplemented with 10% fetal bovine serum and 1 μg/mL puromycin. Cells were plated into poly-D-lysine coated 384-well plates and cultured overnight in a 37° C. humidified tissue culture incubator under 5% CO2/[…] atmosphere. On the day of the experiment, the culture media was replaced with assay buffer (HBSS, 20 mM HEPES, 0.1% BSA) and the cells incubated at 37° C. for 1 h. Calcium-sensitive fluorescent dye (Fluo 8 No-Wash Calcium Dye, ABD Bioquest) was then added and the cells incubated for another 30 min at 37° C. followed by 15 min at room temperature while protected from the light. The cell plate and a plate of diluted compounds of Formula (III) were loaded into a fluorescent plate reader that added compounds onto the cells while measuring the fluorescence intensity of each well. The plate reader recorded fluorescence intensity at 1 second intervals for 8 min and provided the data for analysis in an Excel format. EC50 values were calculated using Prism (GraphPad) software.

pEC50	SMILES
6.32 and 6.38	COc1ccc(F)c(-n2cnc(COc3cccc([C@@H](CC(=O)O)C4CC4)c3)c2C=C(C)C)c1 [Cpd 91, (3S)-3-cyclopropyl-3-[3-[[1-(2-fluoro-5-methoxy-phenyl)-5-(2-methylprop-1-enyl)imidazol-4-yl]methoxy]phenyl]propanoic acid]
6.58 and 6.61	COc1ccc(F)c(-n2nnc(COc3cccc([C@@H](CC(=O)O)C4CC4)c3)c2C)c1 [Cpd 82, (3S)-3-cyclopropyl-3-[3-[[1-(2-fluoro-5-methoxy-phenyl)-5-methyl-triazol-4-yl]methoxy]phenyl]propanoic acid]
7.18	COc1ccc(F)c(-n2ncc(/C=C/c3cccc(C(CC(=O)O)C4CC4)c3)c2C2CC2)c1 (stereo not shown) [Cpd 76, 3-cyclopropyl-3-[3-[(E)-2-[5-cyclopropyl-1-(2-fluoro-5-methoxy-phenyl)pyrazol-4-yl]vinyl]phenyl]propanoic acid]
7.19 and 7.26	COc1ccc(F)c(-n2ncc(COc3cccc([C@@H](CC(=O)O)C4CC4)c3)c2-c2ccc(F)cc2F)c1 [Cpd 95, (3S)-3-cyclopropyl-3-[3-[[5-(2,4-difluorophenyl)-1-(2-fluoro-5-methoxy-phenyl)pyrazol-4-yl]methoxy]phenyl]propanoic acid]
7.60 and 7.64	COc1ccc(F)c(-n2ncc(COc3cccc([C@@H](CC(=O)O)C4CC4)c3)c2-c2cc(C)cc(C)c2)c1 [Cpd 96, (3S)-3-cyclopropyl-3-[3-[[5-(3,5-dimethylphenyl)-1-(2-fluoro-5-methoxy-phenyl)pyrazol-4-yl]methoxy]phenyl]propanoic acid]
8.00 and 8.05	COc1ccc(F)c(-n2nnc(COc3cccc([C@@H](CC(=O)O)C4CC4)c3)c2-c2ccc(C(C)(C)C)s2)c1 [Cpd 92, (3S)-3-[3-[[5-(5-tert-butyl-2-thienyl)-1-(2-fluoro-5-methoxy-phenyl)triazol-4-yl]methoxy]phenyl]-3-cyclopropyl-propanoic acid]
7.42	COc1ccc(F)c(-n2nnc(/C=C/c3cccc([C@@H](CC(=O)O)C4CC4)c3)c2C2CC2)c1 [Cpd 74, (3S)-3-cyclopropyl-3-[3-[(E)-2-[5-cyclopropyl-1-(2-fluoro-5-methoxy-phenyl)triazol-4-yl]vinyl]phenyl]propanoic acid]
